In one experiment the target is TBK1 (Homo sapiens (Human), UniProt Q9UHD2). Put plainly: TR-FRET kinase assay, TBK1. The settings on record: read-out: TBK1-IC50; full length recombinant TBK1 2.5 nM, 2x Km ATP, 1 μM peptide, 240 min at 25° C.; geometric mean of minimum four determinations.
In the next experiment the target is IKKε (Homo sapiens (Human), UniProt Q14164). Put plainly: TR-FRET kinase assay, IKKε. It is filed as biochemical. Conditions: full length recombinant IKKε 0.3 nM, 2x Km ATP, 1 μM peptide, 240 min at 25° C.; geometric mean of minimum four determinations. From the text:
Biological Assay for TBK1 and IKKs:
(TR-FRET usually uses a lanthanide donor and a delayed reading to cut background.)

Our source for the IC50 values is patent US10072001B2, “Tank-binding kinase inhibitor compounds” (Gilead Sciences, Inc., priority 2014, dated 2018).

Molecules are shown by their SMILES.

Chain of TBK1 (Q9UHD2 whole entry): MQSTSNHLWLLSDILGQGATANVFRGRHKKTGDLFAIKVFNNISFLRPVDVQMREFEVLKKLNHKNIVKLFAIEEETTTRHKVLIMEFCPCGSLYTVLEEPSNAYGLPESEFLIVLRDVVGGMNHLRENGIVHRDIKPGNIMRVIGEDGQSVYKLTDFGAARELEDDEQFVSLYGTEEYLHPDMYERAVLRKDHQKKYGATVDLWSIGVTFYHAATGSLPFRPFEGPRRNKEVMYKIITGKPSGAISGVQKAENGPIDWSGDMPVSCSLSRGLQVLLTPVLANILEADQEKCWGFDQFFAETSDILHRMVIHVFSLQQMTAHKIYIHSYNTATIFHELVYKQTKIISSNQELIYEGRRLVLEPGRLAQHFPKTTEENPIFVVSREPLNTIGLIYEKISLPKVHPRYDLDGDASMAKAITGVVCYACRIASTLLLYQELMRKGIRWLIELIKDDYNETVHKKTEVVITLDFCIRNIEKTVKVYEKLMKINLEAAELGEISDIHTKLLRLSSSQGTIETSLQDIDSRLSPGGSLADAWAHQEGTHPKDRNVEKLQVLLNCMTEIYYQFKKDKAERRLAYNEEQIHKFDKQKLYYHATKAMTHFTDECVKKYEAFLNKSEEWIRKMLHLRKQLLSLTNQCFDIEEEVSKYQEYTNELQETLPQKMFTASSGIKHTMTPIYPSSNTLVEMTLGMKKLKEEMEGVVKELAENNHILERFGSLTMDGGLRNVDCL
Chain of IKKε (Q14164 whole entry): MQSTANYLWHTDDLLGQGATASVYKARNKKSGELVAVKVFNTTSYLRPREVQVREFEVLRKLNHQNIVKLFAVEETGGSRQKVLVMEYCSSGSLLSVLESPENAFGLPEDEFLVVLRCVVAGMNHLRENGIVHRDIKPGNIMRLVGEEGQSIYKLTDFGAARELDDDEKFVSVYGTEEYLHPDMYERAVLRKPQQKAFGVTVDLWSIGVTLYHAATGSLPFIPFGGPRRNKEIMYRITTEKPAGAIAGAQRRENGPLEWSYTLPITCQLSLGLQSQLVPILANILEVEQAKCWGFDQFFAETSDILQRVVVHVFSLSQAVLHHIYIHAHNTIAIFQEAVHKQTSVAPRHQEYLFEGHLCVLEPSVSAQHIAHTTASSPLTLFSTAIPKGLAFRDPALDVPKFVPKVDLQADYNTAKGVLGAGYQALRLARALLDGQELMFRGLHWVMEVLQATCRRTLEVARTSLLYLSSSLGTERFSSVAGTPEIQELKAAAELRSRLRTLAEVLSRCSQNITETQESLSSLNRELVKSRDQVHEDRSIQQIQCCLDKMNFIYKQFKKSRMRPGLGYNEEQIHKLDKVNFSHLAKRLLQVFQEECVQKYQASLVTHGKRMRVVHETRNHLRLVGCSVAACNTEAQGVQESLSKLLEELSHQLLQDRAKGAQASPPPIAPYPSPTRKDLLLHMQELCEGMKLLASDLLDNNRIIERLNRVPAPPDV

Turning to `N#Cc1cc(-c2ncnc3[nH]c(-c4ccc(N5CCOCC5)c(F)c4)nc23)ccc1OC1CCOCC1` [Example 242, 5-(8-(3-fluoro-4-morpholinophenyl)-9H-purin-6-yl)-2-((tetrahydro-2H-pyran-4-yl)oxy)benzonitrile], the figures for the IC50 at TBK1 and at IKKε were 3.33 nM and 1000 nM, respectively.
As for `N#Cc1cc(-c2ncnc3[nH]c(-c4ccc(N5CCOCC5)cc4)cc23)ccc1N1CC(O)C1` [Example 199, 2-(3-hydroxyazetidin-1-yl)-5-(6-(4-morpholinophenyl)-7H-pyrrolo[2,3-d]pyrimidin-4-yl)benzonitrile], the figures for the half-inhibitory concentration (IC50) on TBK1 and on IKKε were 2.15 nM and 1000 nM, respectively.
In the same order, the values of `N#Cc1cc(-c2c(F)cnc3[nH]c(-c4ccc(OCCN5CCCC5)cc4)cc23)ccc1OC1CCOCC1` [Example 174, 5-(5-fluoro-2-(4-(2-(pyrrolidin-1-yl)ethoxy)phenyl)-1H-pyrrolo[2,3-b]pyridin-4-yl)-2-((tetrahydro-2H-pyran-4-yl)oxy)benzonitrile] are 6.35 nM and 8.3 nM.
On the same counts, the results for `N#Cc1cc(-c2ccnc3[nH]c(-c4ccc(N5CCOCC5)cc4)cc23)ccc1N1CC(O)C1` [Example 193, 2-(3-hydroxyazetidin-1-yl)-5-(2-(4-morpholinophenyl)-1H-pyrrolo[2,3-b]pyridin-4-yl)benzonitrile] are 3.33 nM and 15.5 nM.
Regarding `N#Cc1cc(-c2ncnc3[nH]c(-c4ccc(OCCN5CCCC5)cc4)cc23)ccc1OCC1CC1` [Example 138, 2-(cyclopropylmethoxy)-5-(6-(4-(2-(pyrrolidin-1-yl)ethoxy)phenyl)-7H-pyrrolo[2,3-d]pyrimidin-4-yl)benzonitrile], the IC50 (usually the concentration at which inhibition is half-maximal) turned out to be 5.88 nM on TBK1 and 3.9 nM on IKKε.
For `N#Cc1cc(-c2ncnc3[nH]c(-c4ccc(N5CCOCC5)cc4)cc23)ccc1O[C@@H]1CCNC1` [Example 106, (R)-5-(6-(4-morpholinophenyl)-7H-pyrrolo[2,3-d]pyrimidin-4-yl)-2-(pyrrolidin-3-yloxy)benzonitrile], the results for the half-inhibitory concentration (IC50) at TBK1 and at IKKε were 4.94 nM and 19 nM, respectively.
Turning to `N#Cc1cc(-c2ncnc3[nH]c(-c4cccc(CN5CCOCC5)c4)cc23)ccc1OC1CCN(C(=O)CO)CC1` [Example 184, 2-((1-(2-hydroxyacetyl)piperidin-4-yl)oxy)-5-(6-(3-(morpholinomethyl)phenyl)-7H-pyrrolo[2,3-d]pyrimidin-4-yl)benzonitrile], the half-inhibitory concentration (IC50) on TBK1 came out at 4.99 nM; at IKKε, 3.43 nM.
In the same order, the values of `N#Cc1cc(-c2ccnc3[nH]c(-c4ccc(N5CCOCC5)cc4)cc23)ccc1N` [Example 28, 2-amino-5-(2-(4-morpholinophenyl)-1H-pyrrolo[2,3-b]pyridin-4-yl)benzonitrile] are 11.7 nM and 119 nM.
On the same counts, the results for `COc1ccc(C#N)cc1-c1ncnc2[nH]c(-c3ccc(N4CCOCC4)cc3)cc12` [Example 133, 4-methoxy-3-(6-(4-morpholinophenyl)-7H-pyrrolo[2,3-d]pyrimidin-4-yl)benzonitrile] are 1000 nM and 1000 nM.
Regarding `CC(C)(C)OC(=O)N1CC[C@@H](Oc2ccc(-c3ccnc4[nH]c(-c5ccc(N6CCOCC6)cc5)nc34)cc2C#N)C1` [Example 302, (R)-tert-butyl 3-(2-cyano-4-(2-(4-morpholinophenyl)-3H-imidazo[4,5-b]pyridin-7-yl)phenoxy)pyrrolidine-1-carboxylate], the IC50 on TBK1 and at IKKε was greater than 1000 nM each time.
As to `N#Cc1cc(-c2ccnc3[nH]c(C4=CCC5(CC4)OCCO5)cc23)ccc1OC1CCOCC1` [Example 180, 5-(2-(1,4-dioxaspiro[4.5]dec-7-en-8-yl)-1H-pyrrolo[2,3-b]pyridin-4-yl)-2-((tetrahydro-2H-pyran-4-yl)oxy)benzonitrile], the results for the 50% inhibitory concentration (IC50) on TBK1 and at IKKε were 3.1 nM and 20.7 nM, respectively.
On the same counts, the results for `CN1CCN(c2ccc(-c3nc4c(-c5ccc(OC6CCNCC6)c(C#N)c5)ncnc4[nH]3)cc2)CC1` [Example 247, 5-(8-(4-(4-methylpiperazin-1-yl)phenyl)-9H-purin-6-yl)-2-(piperidin-4-yloxy)benzonitrile] are 11.3 nM and 16.8 nM.
On to `N#Cc1cc(-c2ncnc3[nH]c(-c4ccc(N5CCOCC5)nc4)nc23)ccc1OC1CCOCC1` [Example 243, 5-(8-(6-morpholinopyridin-3-yl)-9H-purin-6-yl)-2-((tetrahydro-2H-pyran-4-yl)oxy)benzonitrile], for which the IC50 on TBK1 came out at 11.6 nM; on IKKε, 1000 nM.
On the same counts, the results for `N#Cc1cc(-c2ncnc3[nH]c(-c4ccc(N5CCOCC5)c(F)c4)nc23)ccc1OC1CCNCC1` [Example 244, 5-(8-(3-fluoro-4-morpholinophenyl)-9H-purin-6-yl)-2-(piperidin-4-yloxy)benzonitrile] are 35.8 nM and 151 nM.
`COc1cc(-c2cc3c(-c4ccc(OC5CCOCC5)c(C#N)c4)ncnc3[nH]2)ccc1N1CCN(C(=O)CO)CC1` [Example 134, 5-(6-(4-(4-(2-hydroxyacetyl)piperazin-1-yl)-3-methoxyphenyl)-7H-pyrrolo[2,3-d]pyrimidin-4-yl)-2-((tetrahydro-2H-pyran-4-yl)oxy)benzonitrile]: the concentration for half-maximal inhibition (IC50) on TBK1 was 1.09 nM; at IKKε, 6.09 nM.
In the same order, the values of `N#Cc1cc(-c2ccnc3[nH]c(-c4ccc(N5CCOCC5)cc4)nc23)ccc1OC1CCOCC1` [Example 305, 5-(2-(4-morpholinophenyl)-3H-imidazo[4,5-b]pyridin-7-yl)-2-((tetrahydro-2H-pyran-4-yl)oxy)benzonitrile] are 3.2 nM and 10.8 nM.
For `N#Cc1cc(-c2ccnc3[nH]c(-c4cnn(C5COC5)c4)cc23)ccc1OC1CCOCC1` [Example 6, 5-(2-(1-(oxetan-3-yl)-1H-pyrazol-4-yl)-1H-pyrrolo[2,3-b]pyridin-4-yl)-2-((tetrahydro-2H-pyran-4-yl)oxy)benzonitrile], the IC50 was 3.13 nM on TBK1 and 4.87 nM on IKKε.
With `N#Cc1cc(-c2ccnc3[nH]c(C4=CC5CCC4C5)cc23)ccc1OC1CCOCC1` (stereo not drawn) [Example 43, 5-(2-(bicyclo[2.2.1]hept-2-en-2-yl)-1H-pyrrolo[2,3-b]pyridin-4-yl)-2-((tetrahydro-2H-pyran-4-yl)oxy)benzonitrile], the concentration for half-maximal inhibition (IC50) is 434 nM at TBK1 and greater than 1000 nM at IKKε.
Turning to `CC(C)(C)OC(=O)n1ccc2cc(-c3cc4c(-c5ccc(OC6CCOCC6)c(C#N)c5)ccnc4[nH]3)ccc21` [Example 44, tert-butyl 5-(4-(3-cyano-4-((tetrahydro-2H-pyran-4-yl)oxy)phenyl)-1H-pyrrolo[2,3-b]pyridin-2-yl)-1H-indole-1-carboxylate], the 50% inhibitory concentration (IC50) on TBK1 and on IKKε was greater than 1000 nM in each case.
In the case of `CN1CCN(C(=O)c2ccc(-c3cc4c(-c5ccc(OC6CCOCC6)c(C#N)c5)ncnc4[nH]3)cc2)CC1` [Example 187, 5-(6-(4-(4-methylpiperazine-1-carbonyl)phenyl)-7H-pyrrolo[2,3-d]pyrimidin-4-yl)-2-((tetrahydro-2H-pyran-4-yl)oxy)benzonitrile], the IC50 on TBK1 was found to be 1.16 nM; on IKKε, 1.88 nM.
In the same order, the values of `COc1cc(-c2cc3c(-c4ccc(OC5CCS(=O)(=O)CC5)c(C#N)c4)ncnc3[nH]2)ccc1N1CCN(C2COC2)CC1` [Example 139, 2-((1,1-dioxidotetrahydro-2H-thiopyran-4-yl)oxy)-5-(6-(3-methoxy-4-(4-(oxetan-3-yl)piperazin-1-yl)phenyl)-7H-pyrrolo[2,3-d]pyrimidin-4-yl)benzonitrile] are 3.68 nM and 25 nM.
On the same counts, the results for `CC1(C)C(=O)Nc2cc(-c3cc4c(-c5ccc(OC6CCOCC6)c(C#N)c5)ncnc4[nH]3)ccc21` [Example 188, 5-(6-(3,3-dimethyl-2-oxoindolin-6-yl)-7H-pyrrolo[2,3-d]pyrimidin-4-yl)-2-((tetrahydro-2H-pyran-4-yl)oxy)benzonitrile] are 1.69 nM and 8.46 nM.
Regarding `CC(C)(O)c1cccc(-c2cc3c(-c4ccc(OC5CCOCC5)c(C#N)c4)ccnc3[nH]2)c1` [Example 68, 5-(2-(3-(2-hydroxypropan-2-yl)phenyl)-1H-pyrrolo[2,3-b]pyridin-4-yl)-2-((tetrahydro-2H-pyran-4-yl)oxy)benzonitrile], the figures for the concentration for half-maximal inhibition (IC50) at TBK1 and at IKKε were 10.6 nM and 22.5 nM, respectively.
Take `COc1ccc(-c2nc3c(-c4ccc(OC5CCOCC5)c(C#N)c4)ncnc3[nH]2)cc1` [Example 146, 5-(8-(4-methoxyphenyl)-9H-purin-6-yl)-2-((tetrahydro-2H-pyran-4-yl)oxy)benzonitrile]: the IC50 was 4.71 nM on TBK1 and 23.4 nM at IKKε.
As for `N#Cc1cc(-c2cc3c(-c4ccc(OC5CCOCC5)c(C#N)c4)ccnc3[nH]2)ccc1OC1CCOCC1` [Example 62, 5,5′-(1H-pyrrolo[2,3-b]pyridine-2,4-diyl)bis(2-((tetrahydro-2H-pyran-4-yl)oxy)benzonitrile)], the values for the IC50 at TBK1 and at IKKε were 24.1 nM and 25.3 nM, respectively.
As for `CC(C)(C)OC(=O)N1CCC(Oc2ccc(-c3ccnc4[nH]c(-c5ccc(N6CCOCC6)cc5)cc34)cc2C#N)CC1` [Example 21, tert-butyl 4-(2-cyano-4-(2-(4-morpholinophenyl)-1H-pyrrolo[2,3-b]pyridin-4-yl)phenoxy)piperidine-1-carboxylate], the figures for the IC50 at TBK1 and at IKKε were 696 nM and greater than 1000 nM, respectively.
Regarding `Cc1cc(N2CCOCC2)ccc1-c1cc2c(-c3ccc(OC4CCN(C(=O)CO)CC4)c(C#N)c3)ncnc2[nH]1` [Example 121, 2-((1-(2-hydroxyacetyl)piperidin-4-yl)oxy)-5-(6-(2-methyl-4-morpholinophenyl)-7H-pyrrolo[2,3-d]pyrimidin-4-yl)benzonitrile], the results for the IC50 on TBK1 and at IKKε were 1.28 nM and 4.4 nM, respectively.
